For one assay, the target named is HDAC3/NCor2 (Homo sapiens (Human), UniProt O15379). The assay can be described thus: HDAC3 inhibition, Fluor de Lys fluorescent enzyme assay. Type of assay: biochemical. Conditions: 3 hours pre-incubation at room temp; 1.2 nM enzyme; 16 μM Fluor de Lys substrate; duplicate. The text has this: (§1) Recombinant HDAC1 (cat #: 50051) and HDAC3/NCor2 (cat #: 50003) enzymes were purchased from BPS Bioscience (San Diego, CA, US). Assay reagents for the detection of HDAC enzyme activity (Fluor de Lys®—Green substrate and Developer kits) were purchased from Enzo Life Science (Farmingdale, NY, US). Plates used to conduct the enzyme reaction were Proxiplate-384 (cat #: 6008280) Plus from PerkinElmer (Waltham, MA, US). TSA, an HDAC inhibitor, was purchased from Enzo Life Science (cat #BML-GR309-9090) The remainder of the reagents used to prepare the assay buffer were purchased from Sigma-Aldrich (St Louis, MO, US). Unless stated otherwise, HDAC1 and 3 assays were conducted in 50 mM Tris buffer, pH 8, 137 mM NaCl, 2.7 mM KCl, 0.01% BSA.
Sequence of HDAC3/NCor2 (O15379 whole entry): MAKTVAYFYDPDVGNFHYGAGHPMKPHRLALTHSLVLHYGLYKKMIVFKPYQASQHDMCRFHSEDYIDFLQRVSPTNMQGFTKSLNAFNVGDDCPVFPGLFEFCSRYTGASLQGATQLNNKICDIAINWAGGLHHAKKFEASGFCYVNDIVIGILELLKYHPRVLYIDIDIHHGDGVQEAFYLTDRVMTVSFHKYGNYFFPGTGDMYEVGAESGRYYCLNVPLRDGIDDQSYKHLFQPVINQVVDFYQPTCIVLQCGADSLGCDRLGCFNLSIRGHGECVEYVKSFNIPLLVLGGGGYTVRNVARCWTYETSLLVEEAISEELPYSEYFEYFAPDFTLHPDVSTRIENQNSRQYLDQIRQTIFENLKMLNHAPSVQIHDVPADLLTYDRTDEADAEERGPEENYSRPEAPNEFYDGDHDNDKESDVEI
Sequence of HDAC3/NCor2 (Q9Y618 395-489 partner): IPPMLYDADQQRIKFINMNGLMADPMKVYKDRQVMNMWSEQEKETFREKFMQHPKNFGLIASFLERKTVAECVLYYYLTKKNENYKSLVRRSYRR
(§2) IC50 determination for HDAC1 and HDAC3—Prior to adding reagents, 50 nL/well of compound were added to Proxiplates using an Echo dispenser instrument (Beckman Coulter, CA, US). After addition of compound, 2.5 μL/well of 2× enzyme solution was added and the enzyme was pre-incubated with compound for 3 hours at room temp. (˜22° C.). After the pre-incubation period, the enzyme reaction was initiated by adding 2.5 μL/well of 2× Fluor de Lys® substrate solution. The assay reaction was stopped after one hour by adding 5 μl/well of a 0.66× Developer solution containing TSA (3.2 μM). The final product of the enzyme reaction was read using a Spectramax plate reader instrument (Molecular Devices, CA, US) using a fluorescent readout (Ex 360 nm/Em 460 nm). The final enzyme concentrations in the assay buffer for HDAC1 and 3 were 6 and 1.2 nM, respectively. The final Fluor de Lys® substrate concentration in the assay buffer was 16 μM for all HDAC enzymes. IC50 values were determined using the following equation: […]
(§3) Where Efree and Eo are the free and total amount of HDAC enzyme in the reaction mixture, n is the hill coefficient, I is the free inhibitor concentration, and IC50 is the measure of the potency equivalent to the inhibitor concentration that leads to a 50% occupancy of the total enzyme. Each data was generated in duplicate.

The target in a further assay is Recombinant HDAC1 (Homo sapiens (Human), UniProt Q13547). Put plainly: HDAC1 inhibition, Fluor de Lys fluorescent enzyme assay. Conditions: 3 hours pre-incubation at room temp; 6 nM enzyme; 16 μM Fluor de Lys substrate; duplicate. The assay is classed as biochemical.
Sequence of Recombinant HDAC1 (Q13547 whole entry): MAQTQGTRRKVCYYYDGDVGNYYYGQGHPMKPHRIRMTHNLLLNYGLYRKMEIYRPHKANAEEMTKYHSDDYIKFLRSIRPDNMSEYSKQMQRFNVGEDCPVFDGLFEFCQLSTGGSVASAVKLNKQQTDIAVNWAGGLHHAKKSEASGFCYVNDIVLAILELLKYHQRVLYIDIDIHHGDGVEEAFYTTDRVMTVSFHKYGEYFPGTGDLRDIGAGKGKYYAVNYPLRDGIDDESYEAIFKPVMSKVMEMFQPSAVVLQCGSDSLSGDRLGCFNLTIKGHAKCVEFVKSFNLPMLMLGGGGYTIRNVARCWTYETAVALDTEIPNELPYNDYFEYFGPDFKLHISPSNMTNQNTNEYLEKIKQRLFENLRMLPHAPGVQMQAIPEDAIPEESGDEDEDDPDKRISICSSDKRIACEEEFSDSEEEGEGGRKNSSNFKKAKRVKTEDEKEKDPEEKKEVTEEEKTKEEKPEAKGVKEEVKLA
From the text: as §1, §2, §3

Some results are limits rather than exact numbers.

As a reminder, the IC50 is the concentration at which inhibition is half-maximal. `CS(=N)(=O)c1ccc2sc(C(=O)Nc3cc(-c4ccc(F)cc4)ccc3N)cc2c1` (stereo not drawn) [Compound 173, N-[2-amino-5-(4-fluorophenyl)phenyl]-5-(methylsulfonimidoyl)benzothiophene-2-carboxamide]: the IC50 against HDAC3/NCor2 was 500 to 2000 nM; at Recombinant HDAC1, < 100 nM.

Take `Cc1cncc(S(=N)(=O)c2ccc(C(=O)Nc3cc(-c4ccc(F)cc4)ccc3N)cc2)c1` (stereo not drawn) [Compound 199, N-[2-amino-5-(4-fluorophenyl)phenyl]-4-[(5-methyl-3-pyridyl)sulfonimidoyl]benzamide]: the figures for the IC50 at HDAC3/NCor2 and on Recombinant HDAC1 were 500 to 2000 nM and < 100 nM, respectively.

For the molecule `N=S(=O)(c1ccc(C(=O)Nc2cc(-c3ccc(F)cc3)ccc2N)cc1)c1ncc[nH]1` (stereo not drawn) [Compound 257, N-[2-amino-5-(4-fluorophenyl)phenyl]-4-(1H-imidazol-2-ylsulfonimidoyl)benzamide], the IC50 was 100 to 500 nM against HDAC3/NCor2 and < 100 nM at Recombinant HDAC1.

With `CS(=N)(=O)c1ccc(C(=O)Nc2cc(-c3ccsc3)ccc2N)cc1` (stereo not drawn) [Compound 249, N-[2-amino-5-(3-thienyl)phenyl]-4-(methylsulfonimidoyl)benzamide], the IC50 at HDAC3/NCor2 is 500 to 2000 nM; at Recombinant HDAC1 it was < 100 nM.

For `C[S@](=N)(=O)c1ccc(C(=O)Nc2cc(-c3cccs3)ccc2N)cc1` (single isomer, unassigned) [Compound 106], the IC50 at HDAC3/NCor2 is 500 to 2000 nM; at Recombinant HDAC1, < 100 nM.

For `N=[S@@](=O)(c1ccc(C(=O)Nc2cc(-c3cccs3)ccc2N)cc1)C1CC1` (single isomer, unassigned) [Compound 115], the results for the IC50 against HDAC3/NCor2 and at Recombinant HDAC1 were 500 to 2000 nM and < 100 nM, respectively.

On to `N=S(=O)(c1ccc(C(=O)Nc2cc(-c3ccc(F)cc3)ccc2N)cc1)c1cncc(Cl)c1` (stereo not drawn) [Compound 245, N-(4-amino-4′-fluoro-[1,1′-biphenyl]-3-yl)-4-(5-chloropyridine-3-sulfonimidoyl)benzamide], for which the results for the IC50 against HDAC3/NCor2 and at Recombinant HDAC1 were 500 to 2000 nM and < 100 nM, respectively.

On to `CS(=N)(=O)c1ccc(C(=O)Nc2cc(-c3ccc(F)cc3)ccc2N)s1` (stereo not drawn) [Compound 161, N-[2-amino-5-(4-fluorophenyl)phenyl]-5-(methylsulfonimidoyl)thiophene-2-carboxamide], for which the IC50 against HDAC3/NCor2 is 100 to 500 nM; on Recombinant HDAC1 it was < 100 nM.

In the case of `CS(=N)(=O)c1cnc2sc(C(=O)Nc3cc(-c4ccc(F)cc4)ccc3N)cc2c1` (stereo not drawn) [Compound 202, N-[2-amino-5-(4-fluorophenyl)phenyl]-5-(methylsulfonimidoyl)thieno[2,3-b]pyridine-2-carboxamide], the IC50 against HDAC3/NCor2 was > 2000 nM; at Recombinant HDAC1 it was < 100 nM.

Turning to `CC(=O)c1ccc(-c2ccc(N)c(NC(=O)c3ccc(S(C)(=N)=O)cc3)c2)s1` (stereo not drawn) [Compound 241, N-[5-(5-acetyl-2-thienyl)-2-amino-phenyl]-4-(methylsulfonimidoyl)benzamide], the IC50 on HDAC3/NCor2 and at Recombinant HDAC1 was > 2000 nM in each case.

With `CS(=N)(=O)c1ccc(C(=O)Nc2cc(-c3cccs3)ccc2O)cc1` (stereo not drawn) [Compound 123, N-[2-hydroxy-5-(2-thienyl)phenyl]-4-(methylsulfonimidoyl)benzamide], the results for the IC50 on HDAC3/NCor2 and on Recombinant HDAC1 were 500 to 2000 nM and < 100 nM, respectively.

On to `CS(=N)(=O)c1ccc(C(=O)Nc2cc(-c3ccc(F)cc3)ccc2N)nn1` (stereo not drawn) [Compound 159, N-[2-amino-5-(4-fluorophenyl)phenyl]-6-(methylsulfonimidoyl)pyridazine-3-carboxamide], for which the IC50 against HDAC3/NCor2 was 100 to 500 nM; on Recombinant HDAC1, < 100 nM.

Turning to `N#Cc1cncc(S(=N)(=O)c2ccc(C(=O)Nc3cc(-c4ccc(F)cc4)ccc3N)cc2)c1` (stereo not drawn) [Compound 232, N-(4-amino-4′-fluoro-[1,1′-biphenyl]-3-yl)-4-(5-cyanopyridine-3-sulfonimidoyl)benzamide], the results for the IC50 against HDAC3/NCor2 and on Recombinant HDAC1 were > 2000 nM and < 100 nM, respectively.

In the case of `N=S(=O)(c1ccc(C(=O)Nc2cc(-c3ccc(F)cc3)ccc2N)cc1)c1cncc(CO)c1` (stereo not drawn) [Compound 250, N-(4-amino-4′-fluoro-[1,1′-biphenyl]-3-yl)-4-(5-(hydroxymethyl)pyridine-3-sulfonimidoyl)benzamide], the IC50 at HDAC3/NCor2 is 500 to 2000 nM; at Recombinant HDAC1, < 100 nM.

Turning to `Cc1ccc(-c2ccc(N)c(NC(=O)c3ccc(S(C)(=N)=O)cc3)c2)s1` (stereo not drawn) [Compound 139, N-[2-amino-5-(5-methyl-2-thienyl)phenyl]-4-(methylsulfonimidoyl)benzamide], the IC50 against HDAC3/NCor2 is > 2000 nM; at Recombinant HDAC1, < 100 nM.

Take `CS(=O)(=NC1CC1)c1ccc2oc(C(=O)Nc3cc(-c4ccc(F)cc4)ccc3N)cc2c1` (stereo not drawn) [Compound 230, N-[2-amino-5-(4-fluorophenyl)phenyl]-5-(N-cyclopropyl-S-methyl-sulfonimidoyl)benzofuran-2-carboxamide]: the IC50 against HDAC3/NCor2 was 500 to 2000 nM; at Recombinant HDAC1 it was < 100 nM.

For the molecule `CS(=N)(=O)c1ccc(C(=O)Nc2cc(-c3ccc(F)c(F)c3)ccc2N)cc1` (stereo not drawn) [Compound 147, N-[2-amino-5-(3,4-difluorophenyl)phenyl]-4-(methylsulfonimidoyl)benzamide], the IC50 is > 2000 nM against HDAC3/NCor2 and 100 to 500 nM on Recombinant HDAC1.

For the molecule `CC(C)c1cncc(S(=N)(=O)c2ccc(C(=O)Nc3cc(-c4ccc(F)cc4)ccc3N)cc2)c1` (stereo not drawn) [Compound 226, N-[2-amino-5-(4-fluorophenyl)phenyl]-4-[(5-isopropyl-3-pyridyl)sulfonimidoyl]benzamide], the IC50 was 500 to 2000 nM on HDAC3/NCor2 and < 100 nM on Recombinant HDAC1.

Take `N=S(=O)(c1ccc2sc(C(=O)Nc3cc(-c4ccc(F)cc4)ccc3N)cc2c1)C1CC1` (stereo not drawn) [Compound 224, N-[2-amino-5-(4-fluorophenyl)phenyl]-5-(cyclopropylsulfonimidoyl)benzothiophene-2-carboxamide]: the IC50 was 500 to 2000 nM against HDAC3/NCor2 and < 100 nM on Recombinant HDAC1.

In the case of `Nc1ccc(-c2ccc(F)cc2)cc1NC(=O)c1ccc([S@@]2(=O)=N[C@@H](c3ccccc3)CC2)cc1` (racemic) [Compound 229, rac-N-(4-amino-4′-fluoro-[1,1′-biphenyl]-3-yl)-4-((1R,3R)-1-oxido-3-phenyl-4,5-dihydro-3H-1λ^6-isothiazol-1-yl)benzamide], the IC50 at HDAC3/NCor2 is > 2000 nM; on Recombinant HDAC1, < 100 nM.

Regarding `CS(=O)(=NC1CC1)c1ccc2sc(C(=O)Nc3cc(-c4ccc(F)cc4)ccc3N)cc2c1` (stereo not drawn) [Compound 211, N-[2-amino-5-(4-fluorophenyl)phenyl]-5-(N-cyclopropyl-S-methyl-sulfonimidoyl)benzothiophene-2-carboxamide], the results for the IC50 on HDAC3/NCor2 and on Recombinant HDAC1 were 500 to 2000 nM and < 100 nM, respectively.

As for `CS(=N)(=O)C1(c2ccc(C(=O)Nc3cc(-c4ccc(F)cc4)ccc3N)cc2)CC1` (stereo not drawn) [Compound 251, N-[2-amino-5-(4-fluorophenyl)phenyl]-4-[1-(methylsulfonimidoyl)cyclopropyl]benzamide], the IC50 is 500 to 2000 nM on HDAC3/NCor2 and < 100 nM on Recombinant HDAC1.

In the case of `CS(=N)(=O)Cc1ccc2sc(C(=O)Nc3cc(-c4ccc(F)cc4)ccc3N)cc2c1` (stereo not drawn) [Compound 167, N-[2-amino-5-(4-fluorophenyl)phenyl]-5-[(methylsulfonimidoyl)methyl]benzothiophene-2-carboxamide], the IC50 against HDAC3/NCor2 was 500 to 2000 nM; at Recombinant HDAC1, < 100 nM.

In the case of `CS(=O)(=NC#N)c1ccc(C(=O)Nc2cc(-c3cccs3)ccc2N)cc1` (stereo not drawn) [Compound 153, N-[2-amino-5-(2-thienyl)phenyl]-4-(N-cyano-S-methyl-sulfonimidoyl)benzamide], the IC50 is 500 to 2000 nM against HDAC3/NCor2 and < 100 nM at Recombinant HDAC1.
